{"source": "patent US12599647B2", "about": "“Peptide amide composition and preparation method therefor” (Xizang Haisco Pharmaceutical Co., Ltd., priority 2019, dated 2026)", "type_in_all_cases": "physicochemical", "key": {"[1]": {"assay": "Related substances of formulation solutions for injection after high temperature acceleration at 40°C", "conditions": "compound II raw material (stored refrigerated 2°C-8°C), control, 0 days", "procedure": "The sample of Formulation 1 solution for injection was placed under the conditions of 40° C.±2° C. for 5 days; compound II raw material (stored under refrigerated conditions of 2° C.-8° C.) was used as a control; and changes of related substances in the sample were examined, with data shown in Table 3.\nFormulation 2 solution for injection was placed under the conditions of 40° C. 2° C. for 5 days; compound II raw material (stored under refrigerated conditions of 2° C.-8° C.) was used as a control; and changes of related substances in the sample were examined, with data shown in Table 4.\nFormulation 3 solution for injection was placed under the conditions of 40° C. 2° C. for 5 days; compound II raw material (stored under refrigerated conditions of 2° C.-8° C.) was used as a control; and changes of related substances in the sample were examined, with data shown in Table 5.\nFormulation 4 solution for injection was placed under the conditions of 40° C. 2° C. for 9 days; compound II raw material (stored under refrigerated conditions of 2° C.-8° C.) was used as a control; and changes of related substances in the sample were examined, with data shown in Table 6.\nFormulation 5 solution for injection was placed under the conditions of 40° C. […]"}, "[2]": {"assay": "Related substances in compound II solutions at pH range 3-5.5 (Table 2)", "conditions": "aqueous solution, pH adjusted with glacial acetic acid; 40°C±2°C, 10 days", "procedure": "(§1) Considering the operability of industrial production, we examined the stability of solutions at a pH range of 3-5.5. 750 ml of water for injection was measured and taken; nitrogen was charged beneath the surface of the liquid for about 20 min; and the water temperature was controlled to be 50° C. or less. 37.5 mg of compound II was weighed, added to the above-mentioned water for injection and stirred to dissolution and clarification to obtain solution (1). Solution (1) was adjusted with glacial acetic acid (source: Chengdu Kelong Chemical Co., Ltd.) to different pH values, and aqueous solutions containing compound II at different pH values were obtained. The aqueous solutions were placed under the conditions of 40° C.±2° C. for 10 days, and the performance of related substances in the solutions at different pH values was examined, with data shown in Table 2."}, "[3]": {"assay": "Related substances in compound II solutions at different pH values (Table 1)", "conditions": "aqueous solutions, pH adjusted with glacial acetic acid or tartaric acid; 40°C±2°C, 10 days", "procedure": "as §1, with “750” for “Considering the operability of industrial production, we examined the stability of solutions at a pH range of 3-5.5. 750”, “Ltd.) and tartaric acid” for “Ltd.)”, “values, respectively,” for “values,”, “examined (including the solution at a pH value not being adjusted),” for “examined,”, “1.” for “2.”"}}, "note": "“And” between values parts separate entries of the source, which are not always exact repeats. Identical values can stand only once.", "data": [{"smiles": "CC(=O)N1CC2(CCN(C(=O)[C@@H](CCCCN)NC(=O)[C@@H](CC(C)C)NC(=O)[C@@H](Cc3ccccc3)NC(=O)[C@H](N)Cc3ccccc3)CC2)C1", "note": "[Compound II]", "values": [{"measurement": "Total impurity (%)", "setting": "[1]", "result": "1.098% and 1.238%"}, {"measurement": "pH range at which the product is stable", "setting": "[2]", "result": "3-5.5"}, {"measurement": "pH value of best stability", "setting": "[3]", "result": "about 4"}]}]}
